One series concerns LC3-II protein. The experiment in a line: LC3-II protein level in SH-SY5Y cells with or without bafilomycin A1. The conditions noted are these: bafilomycin A1 10 nM alone. The class given is cell-based, human. As to the method: The observed increase in LC3-positive autophagosomes could result, in principle, from either an increased flux through the autophagy pathway or decreased autophagosome degradation (Pankiv, S., et al. J Biol Chem 282, 24131-24145 (2007); Kamada, Y., et al. J Cell Biol 150, 1507-1513 (2000)). […] In order to ascertain an increase in autophagic flux, cells were co-treated with LNK-754-TS and an inhibitor of autophagosome-lysosome fusion, bafilomycin A1 (10 nM). Bafilomycin treatment alone caused a 100% increase in the amount of LC3-II, consistent with the fact that it inhibits autophagosome degradation (FIG. 8c).

A further series concerns human α-synuclein. Briefly: Masliah D-line α-synuclein transgenic mouse, α-synuclein immunoreactivity and ELISA. The class given is in vivo. The settings on record: α-synuclein transgenic mice vs vehicle. As for the experimental part: Animals and treatments: Male and female human WT alpha-synuclein over-expressing transgenic mice^32 at 6 months of age were given vehicle (10% beta-cyclodextrin) or LNK-754-TS (0.09, 0.9 and 9 mg/kg) per oral gavage twice daily for 3 months or animals at 7 months of age were given vehicle (2.5% beta-cyclodextrin) or LNK-754-TS (2 mg/kg) once every three days for 3 months. Male and female TAU transgenic mice expressing TAU441 bearing the missense mutations V337M^50 and R406W under the control of the murine Thy-1 promoter with a CB6xC57BL/6 background were 5 months old at the time when the oral treatment for three months with LNK-754-TS (0.9 and 0.09 mg/kg) as well as vehicle (2.5% beta-cyclodextrin) was started. Female human APP/PS1 (APP (London V7171)/PS1(A246E)) over-expressing transgenic mice were treated with LNK-754-TS (0.9 mg/kg) or vehicle (2.5% beta-cyclodextrin) for 2 months or 12 days.
Immunohistochemistry and quantification of stained cells: For evaluation of α-synuclein immunoreactivity (IR), 5 sagittal cryo-cut sections (10 μm slice thickness) from five different layers were used for counting of IR cells in the cortex and hippocampus. Brain sections were stained with a monoclonal human α-synuclein specific antibody (Alexis®; Cat#804-258-L001; dilution 1:5), followed by a secondary Ab Cy 2-Goat Anti-Rat (Jackson ImmunoResearch®; dilution 1:200). IR positive cells were quantified using specialized image analysis software (Image Pro Plus, version 4.5.1.29). For Tau transgenic animals, 5 μm thick coronal paraffin sections were stained with the monoclonal mouse anti-human TAU-antibodies (AT180—1:100; HT7—1:500) and visualized using an anti-mouse Cy3 secondary antibody (1:500, Jackson Laboratories®). Images were evaluated with ImageProPlus (version 6.2) image analysis software. For APP/PS1 transgenic animals sagittal hemisections (40 μm) were collected and processed for Aβ immunohistochemistry using an 6E10 antibody, Thioflavin-S staining. Primary antibodies were detected by the ABC method.
ELISA quantification of α-Synuclein in the α-Synuclein transgenic animals: Brain homogenate was centrifuged and the supernatant saved as fraction F1. The pellet was washed then resuspended and saved as fraction F2. Plates (Nunc, 464718) were coated with SYN-1 (1:1000, BD Transduction Labs, 610787). Monomeric recombinant α-synuclein was included as an internal standard. Biotinylated antibody FL-140 (1:300, Santa Cruz Biotechnology, sc-10717-B) and ExtrAvidin-Alkaline phosphatase (3:5000, Sigma, E2636) was added followed by pNPP substrate solution (Sigma, N1891). Raw absorbance (405 nm) was then normalized to the total protein concentration of each sample. In the APP/PS1 transgenic animal, brains were homogenized and the supernatant, Faction 1, was separated from the pellet. The pellets were further processed with addition of NP40 and Triton X-100. The supernatant was separated from the pellet as the insoluble membrane, Fraction 2, and was dissolved in 8M Guanidine. To quantify the amount of human Aβ-40 and Aβ-42, ELISA kits were used (The Genetics Company, Zurich, Switzerland).
In FIG. 2 is shown efficacy data for LNK-754-TS in the Masliah D-line transgenic α-synuclein mouse (an accepted model of synucleinopathies). Two trials are shown, the first (FIG. 2A) at higher doses of LNK-754-TS: 45 mg/kg and 9 mg/kg. […] The second trial (FIG. 2B) explores the low dose range for efficacy in the α-synuclein models. Here, doses start as low as 0.9 mg/kg, and extend through 9 mg/kg, all below the efficacious dose range in the mouse oncology model.
After dosing with LNK-754-TS for three months (twice daily at 0.09 mg/kg or 0.9 mg/kg), α-synuclein accumulation in the brain was analyzed by immunohistochemical (human specific α-synuclein immunoreactivity) and biochemical (α-synuclein ELISA) means. […]
For orientation: In an ELISA, binding on a coated surface is turned into a signal by an enzyme label.

A further series deals with LC3 mRNA. Briefly: LC3 mRNA (qPCR) in SH-SY5Y cells. The series is classed as cell-based, human. The settings on record: 100 nM, 72 hr, SH-SY5Y. As for the experimental part: (§1) Cell culture and immunocytochemistry: SH-SY5Y cells were grown in DMEM medium supplemented with 10% FBS and 1% pen/strep at 37° C. and 5% CO2. Cells were differentiated with 10 μM retinoic acid for 48 hr, then treated with the either rapamycin (100 nM or 1 μM) or with 100 nM of either LNK-754-TS or Tipifarnib for 48-72 hr. Cells were then fixed with 4% paraformaldehyde and stained for LC3 (Novus biological, NB100-2331, dilution 1:800) followed by secondary Alexa-564 anti-Rabbit (A-11011).
(§2) Quantitative real-time PCR: Gene expression profiles were done by qPCR on series of known autophagy genes. RNA was extracted with Tri-reagent (Sigma), and cDNAs generated using iScript (Biorad). qPCR analysis was carried out in a 96 well plate using an iCycler (BioRad, Hercules, Calif.), and iQ SYBR Green Supermix (Biorad) according to the manufacturer's specifications.
Such increases in LC3 mRNA levels are associated in the literature with stimulation of macroautophagy. This supports the hypothesis that at doses as low as 1 nM in this in vitro system there is stimulation of autophagy in these cells.
(§3) Autophagy was measured in a neuroblastoma cell culture system by three distinct approaches: quantitation of autophagy-related mRNA's, immunofluorescence microscopy of autophagosomes, and biochemical detection of the microtubule-associated protein 1 light chain 3 (LC3) a key protein that is required for autophagosome formation. Differentiated human neuroblastoma cells (SH-SY5Y) were treated for 72 hr with LNK-754-TS (0.01-100 nM), Zarnestra® (also referred to herein as tipifarnib) (100 nM) or rapamycin (1 μM).
A general note: Quantitative PCR measures a nucleic acid by following its amplification.

Series [1] deals with LC3-positive puncta (autophagosomes). The experiment in a line: LC3 immunostaining (LC3-positive puncta) in SH-SY5Y cells. The series is classed as cell-based, human. The settings on record: 100 nM, SH-SY5Y (FIG. 8b). As to the method: as §1, §3
Another series concerns the target FTase (Homo sapiens, UniProt P49354+P49356). The conditions noted are these: End et al., Cancer Research 2001; cited from earlier work.
The target in series [2] is T1, GGTase (Homo sapiens, UniProt P49354+P53609). The settings on record: at 50 micromolar; cited from earlier work.
Series [3] has as its target T1, GGTase. Briefly: GGTase inhibitory activity, general statement. The series is classed as biochemical. The conditions noted are these: selective FTase inhibitors.
Series [4] in a line: Pharmacokinetics of Zarnestra in C57BL/6 mice, oral. The series is classed as in vivo, mouse. The conditions noted are these: oral 5 mg/kg single dose; for MRT: read-out: MRT(0-[…]). As for the experimental part:
LLOQ: brain 4 ng/g; plasma 50 ng/ml.
The pharmacokinetic profiles of LNK-754-TS and Zarnestra® were analyzed using methods known in the art. The results are shown in FIGS. 13-14 and the tables below.

Series [5] deals with autophagy-related gene transcripts. Briefly: mRNA of autophagy-related genes (Atg1, p62) in SH-SY5Y cells. The settings on record: 100 nM, SH-SY5Y (FIG. 8d). The class given is cell-based, human. As to the method:
as §2
Rapamycin is a well-characterized autophagy stimulator that acts through inhibition of mTOR, a kinase involved in nutrient signaling and regulation of cell growth and survival.

The text below walks through data of US20100331363A1, “TREATMENT OF MITOCHONDRIAL DISORDERS USING A FARNESYL TRANSFERASE INHIBITOR” (Link Medicine Corporation, priority 2008, published 2010).

“Also recorded” adds a separate entry of the source. Where two headings read alike, the source gives them in different places.

What is called Cmax is the maximum level reached in the sampled fluid or tissue. A word on the Tmax: it is the time at which the peak concentration occurs. In general, half-life refers to the time in which the quantity being followed falls by half. Low values mean rapid decline, high ones slow decline. By MRT is commonly meant the average time that molecules of a dose stay in the body. For orientation: AUC means concentration integrated over time.

Consider `CO/C1=C\C(C)=C\[C@@H](C)[C@@H](O)[C@@H](C)C/C(C)=C/C=C/[C@H](OC)[C@@H]([C@@H](C)[C@@H](O)[C@H](C)[C@@]2(O)C[C@@H](O)[C@H](C)[C@@H](C(C)C)O2)OC1=O` [Bafilomycin, bafilomycin A1, reference compound], for which, in the series on LC3-II protein, the “increase in the amount of LC3-II” value amounted to 100%.
As to `Cn1cncc1[C@@](N)(c1ccc(Cl)cc1)c1ccc2c(c1)c(-c1cccc(Cl)c1)cc(=O)n2C` [Zarnestra®, (R)-6-(Amino(4-chlorophenyl)(1-methyl-1H-imidazol-5-yl)methyl)-4-(3-chlorophenyl)-1-methyl-2(1H)-quinolinone], in the series with human α-synuclein, the “levels of α-synuclein in the hippocampus” value is recorded as “decrease levels of α-synuclein” and the α-synuclein inclusions entry was “fewer α-synuclein inclusions”. Further, the “LC3 mRNA” value in the series with LC3 mRNA is given as “works in this assay; also recorded: upregulated”. In the series on LC3 mRNA (listed as tipifarnib), the “LC3 mRNA” value is given as “increased”. Besides, in [1], the “number of LC3-positive puncta” value was “distinct increase”. Also, the “number of LC3-positive puncta” value in [1] (listed as tipifarnib) was “increased”. Also, on FTase, the “selectivity for FTase than GGTase” value is “over 5,000 times”. Further, the “inhibition of geranylgeranylation of lamin B peptide substrate by GGTase” value on GGTase [2] is 40%. Further, on GGTase [3], the GGTase inhibitory activity entry is given as “little to no GGTase inhibitory activity”. Further, in series [4] (Brain), the “AUC(0-t)” value came out at 44.50 ng·h/g and the “AUC(0-[…])” value is 86.86 ng·h/g. Moreover, in [4] (mouse, Brain), the highest level (Cmax) was 6.84 ng/g, the Tmax turned out to be 1 h, the half-life is 8.1 h and the MRT worked out at 11.4 h. Further, in [4] (mouse, plasma, Blood), the peak concentration (Cmax) was 40.4 ng/mL, the time of peak concentration (Tmax) came to 1 h, the half-life was 1.31 h and the mean residence time (MRT) was found to be 1.76 h. Also, the AUC(0-t) in series [4] (mouse, plasma, Blood, read-out: AUC(0-t)) turned out to be 130 ng·h/mL. Also, the AUC in [4] (mouse, plasma, Blood, read-out: AUC(0-[…])) came out at 131 ng·h/mL. Also, the “mRNA levels of a set of autophagy-related genes (incl. Atg1)” value in [5] is reported as “unaffected”.
